# Literature values in article PMC8198792, “Prediction of Anticancer Peptides with High Efficacy and Low Toxicity by Hybrid Model Based on 3D Structure of Peptides” (International Journal of Molecular Sciences, 2021).
# Like-named read-outs stand apart in the source and are kept apart here.
# Test system: cancer cell lines
# Parameters: method as in 6 sources, ref CancerPPD [45] and SATPdb ||| ref CancerPPD/SATPdb ||| ref CancerPPD, SATPdb, Swissprot (PDB) ||| ref CancerPPD/SATPdb/Swissprot(PDB) ||| ref CancerPPD / SATPdb ||| ...
# Settings: cited from earlier work
# Source text: Supplement ijms-22-05630-s001.zip/ACPs(seguence).xlsx, sheet "D1" | column: Activity || Supplement ijms-22-05630-s001.zip/ACPs(seguence).xlsx, sheet "D2" | column: Activity || Supplement ijms-22-05630-s001.zip/ACPs(seguence).xlsx, sheet "D3" | column: Activity || (+ 2 further places)
# [1] = ACPs dataset D3 (supplement sheet "D3"), 1 = ACP, 0 = non-ACP, ref CancerPPD [45] and SATPdb
# [2] = ACPs dataset D4 (sheet "D4"), label 1 = ACP (CancerPPD ID), 0 = non-ACP (non-anticancer AMP, SATPdb ID), ref CancerPPD [45] and SATPdb
# [3] = ACPs dataset D5 (sheet "D5"), label 1 = ACP (positive set), 0 = non-ACP (negative set), ref CancerPPD [45] and SATPdb
# [4] = ACPs dataset D1, 1 = ACP (positive), 0 = non-ACP (negative), label taken from databases, ref CancerPPD [45] and SATPdb
# [5] = ACPs dataset D1, label 1 = ACP, 0 = non-ACP (non-anticancer AMPs from SATPdb), ref CancerPPD/SATPdb
# [6] = ACPs dataset D4 (sheet "D4"), label 1 = ACP, 0 = non-ACP, ref CancerPPD / SATPdb
# [7] = ACPs dataset D4 (sheet "D4"), label 1 = ACP, experimentally validated ACPs, ref CancerPPD [45] and SATPdb
# [8] = ACPs dataset D5 (sheet "D5"), label 1 = ACP (positive set), sequences with CancerPPD/SATPdb ID, ref CancerPPD, SATPdb
# [9] = ACPs dataset sheet D2, 1 = ACP (CancerPPD/SATPdb ID), 0 = non-ACP (Swissprot/PDB ID), ref CancerPPD, SATPdb, Swissprot (PDB)
# [10] = ACPs dataset D5, sheet "D5", label 1 = ACP, 0 = non-ACP, ref CancerPPD [45] and SATPdb
# [11] = ACPs dataset D3 (sheet "D3"), label 1 = ACP, 0 = non-ACP, ref CancerPPD/SATPdb
# [12] = ACPs dataset D2 (supplement ACPs(seguence).xlsx, sheet D2), dataset label 1/0 (ACP / non-ACP), entries identified by Swissprot(PDB ID), ref CancerPPD/SATPdb/Swissprot(PDB)
Substance,Activity [2],Activity [4],Activity [7],Activity [8],Activity [9],also measured
GLFDVIKKVASVIKGL [compound 4075],1,,,,,Activity [1]: 1; Activity [3]: 1
GLFDVIKKVASVIKKL [compound 4084],1,,,,,Activity [1]: 1; Activity [3]: 1
GLFKVIKKVAKVIKKL [compound 4156],1,,,,,Activity [1]: 1; Activity [3]: 1
GLFKVIKKVASVIGGL [compound 4147],1,,,,,Activity [1]: 1; Activity [3]: 1
GLFSKFNKKKIKSGLIKIIKTAGKEAGLEALRTGIDVIGCKIKGEC [satpdb11080],0,0,,,,
GLFSKFVGKGIKNFLIKGVKHIGKEVGMDVIRVGIDVAGCKIKGVC [satpdb10682],0,0,,,,
GLFTLIKGAAKLIGKTVPKKQARLGMNLWLVKLPTNVKT [satpdb12795],,,,,,Activity [5]: 0; Activity [6]: 0
GLFVGLAKVAAHNNPAIAEHFQA [compound 4390],,1,1,1,1,
GLFVGVLAKVAAHVVPAIAEHF [compound 4391],,1,1,1,1,
GLKEIFKAGLGSLVKGIAAHVAS [satpdb14561],,,,,,Activity [6]: 0; Activity [10]: 0
GLLDIVKKVVGAFGSL [compound 4414],,1,1,1,1,
GLLGLLGSVVSHVVPAIVGHF [compound 4416],,1,1,1,1,
GLLGPLLKIAAKVGSNLL [compound 4417],,1,1,1,1,
GLLGPLLKIAKKVGSNLL [satpdb10622],,,,,,Activity [1]: 0; Activity [6]: 0; Activity [10]: 0
GLLGSIFGAGKKIACALSGLC [satpdb11926],0,,,,,Activity [5]: 0
GLLKRIKTLL [2MJQ NMR - A 1-10],,,,,0,Activity [3]: 0
GLLPCAESCVYIPCLTTVIGCSCKSKVCYKN [compound 4423],,1,1,1,1,
GLLSVLGSVAKHVLPHVVPVIAEHL [compound 4424],,1,1,1,1,
GLMDTIKGVAKTVAASWLDKLKCKITGC [compound 4362],,1,1,1,1,
GLPRKILAAIAKKK [satpdb14133],,,,,,Activity [11]: 0; Activity [6]: 0; Activity [10]: 0

Substance,Activity [2],Activity [4],Activity [7],Activity [8],Activity [9],also measured
GLPTCGETCTLGTCYVPDCSCSWPICMKN [compound 4381],,1,1,1,1,
GLPVCGETCFGGTCNTPGCTCDPWPVCTRN [compound 4427],,1,1,1,1,
GLPVCGETCTLGTCYTQGCTCSWPICKRN [satpdb13318],,,,,,Activity [5]: 0; Activity [6]: 0
GLWSKIKEAAKAAGKAALNAVTGLVNQGDQPS [compound 4452],,1,1,1,1,
GMATKAGTAFGKAAKAIIGAAL [satpdb11334],0,0,,,,
GMWKKILGKLIR [compound 3643],1,,,,,Activity [1]: 1; Activity [3]: 1
GMWSKILGHLIK [compound 3636],1,,,,,Activity [1]: 1; Activity [3]: 1
GMWSKILGHLKR [compound 3637],1,,,,,Activity [1]: 1; Activity [3]: 1
GMWSKILGKLIR [compound 3638],1,,,,,Activity [1]: 1; Activity [3]: 1
GPSQPTYPGDDAPVEDLIRFYNDLQQYLNVVTRHRY [1PPT X-ray 1.37 A 1-36],,,,,,Activity [12]: 0; Activity [3]: 0
GPWAPCSASCGGGSQSRS [satpdb28727],,1,1,1,1,
GPWERCTAQCGGGIQARRR [satpdb29089],,1,1,1,1,
GPWGPCSGSCGPGRRLRRR [satpdb14705],,1,1,1,1,
GRLKRLRKKLKKLLKKLS [satpdb12346],,,,,,Activity [11]: 0; Activity [6]: 0; Activity [10]: 0
GRRKRKWLRRIGKGVKIIGGAALDHL [compound 4351],1,,,,,Activity [1]: 1; Activity [3]: 1
GRVPYPRGGLLkLLKklLKKLlKL [compound 3587],1,,,,,Activity [1]: 1; Activity [3]: 1
GSEGPLKPGARIFSFDGKDVLRHPT [compound 4204],,1,1,1,1,
GSIPACGESCFKGKCYTPGCSCSKYPLCAKN [2GJ0 NMR - A 1-31],,,,,0,Activity [3]: 0
GSIPCAESCVYIPCITGIAGCSCKNKVCYYN [satpdb12154],0,,,,,Activity [5]: 0
GSIPCEGSCVFIPCISAIIGCSCSNKVCYKN [compound 4379],,1,1,1,1,

Substance,Activity [2],Activity [4],Activity [7],Activity [8],Activity [9],also measured
GSIPCGESCVFIPCISSVIGCACKSKVCYKN [compound 4374],,1,1,1,1,
GSKKPVPIIYCNRRTGKCQRM [5XO4 NMR - A 1-21],,,,,0,Activity [3]: 0
GSSFLSPEHQLAQQRKESKKPPAKLQPR [satpdb13082],,,,,,Activity [5]: 0; Activity [6]: 0
GTFPCGESCVFIPCLTSAIGCSCKSKVCYKN [compound 4418],,1,1,1,1,
GTLPCGESCVWIPCISAVVGCSCKSKVCYKN [satpdb10694],0,0,,,,
GTPCGESCVYIPCFTAVVGCTCKDKVCYLN [satpdb10441],0,,,,,Activity [5]: 0
GTWDDIGQGIGRVAYWVGKAMGNMSDVNQASRINRKKKH [2JPJ NMR - A 1-39],,,,,,Activity [12]: 0; Activity [3]: 0
GVDITVIRPNH [satpdb22601],,1,1,1,1,
GVFGLLAKAALKGASKLIPHLLPSRQQ [satpdb12176],0,,,,,Activity [5]: 0
GVFTLIKGATQLIGKTLGKELGKTGLEIMACKITKQC [satpdb12576],0,,,,,Activity [5]: 0
GVGDLIRKAV SVIKNIV [6GS3 X-ray 1.45 A/B 1-17],,,,,0,Activity [3]: 0
GVLDTFKDVAIGVAKGAGTGVLKALLCKLDKSC [satpdb13223],,,,,,Activity [5]: 0; Activity [6]: 0
GVLSNVIGYLKKLGTGALNAVLKQ [satpdb12685],0,,,,,Activity [5]: 0
GVPICGETCTLGTCYTAGCSCSWPVCTRN [compound 4421],,1,1,1,1,
GVVDILKGAAKDLAGHLATKVMNKL [satpdb14637],,,,,,Activity [11]: 0; Activity [6]: 0; Activity [10]: 0
GVWSTILGGLKKFAKGGLDAIVNPK [satpdb10425],0,0,,,,
GWIRDFGKRIERVGQHTRDATIQTIAVAQQAANVAATLKG [satpdb12541],0,,,,,Activity [5]: 0
GWKKWFNRAKKVGKTVGGLAVDHYLG [satpdb11446],0,,,,,Activity [5]: 0
GWLPTFGKILRKAMQLGPKLIQPI [satpdb12473],0,,,,,Activity [5]: 0
HFLLTKVNLAKKIL [satpdb11375],,,,,,Activity [1]: 0; Activity [6]: 0; Activity [10]: 0
